Data on 43 molecules can be found in patent publication US9345703B2, “Kappa opioid receptor effectors and uses thereof” (University of Kansas, priority 2011, dated 2016).

Common to all, as to assay type: cell-based
Experiment [1] concerns the target T1, KOR (Homo sapiens, UniProt P41145). Nature of the experiment: DISCOVERX β-arrestin […] assay, agonist mode (KOR DRx). The settings on record: for EC50: agonist; for Emax (%): at highest concentration tested, compared to dynorphin A (Emax=100%). The text has this: (§1) In this campaign, two assay platforms were employed to evaluate KOR activity and selectivity: the KOR1 DISCOVERX β-Arrestin […] assay and an imaging based β-arrestin translocation assay for confirmatory and selectivity assays. The KOR1 DISCOVERX β-Arrestin […] assay is a commercial platform for direct measurement of GPCR (G protein-coupled receptor) activation by detection of β-Arrestin binding to the KOR. […] In cells that stably express these fusion proteins, ligand stimulation results in the recruitment of β-Arrestin by the GPCR. This interaction encourages the complementation of the two β-galactosidase fragments resulting in the formation of a functional enzyme that converts substrate in the assay medium to a detectable signal.

The target of experiment [2] is T1, KOR. Nature of the experiment: High content imaging based β-arrestin translocation assay, KOR agonist (KOR HCS). Particulars: n = 2, read-out: Average Potency KOR HCS.
Text: as §1, with “signal. The imaging based high-content β-arrestin translocation assay is based upon the redistribution of β-Arrestin linked to green fluorescent protein (GFP) to the cell surface and detection (Barak, et al. (1997) J. Biol. Chem. 272:27497-27500).” for “signal.”
(§2) Initially, a portion (approximately 290,000 compounds) of the MLSMR compound collection was tested in the KOR1 DISCOVERX β-arrestin primary kappa opioid (KOP) agonist and antagonist screens (PUBCHEM AID 1777 and 1778, respectively) at a single concentration point (10 μM). […] These compounds were concurrently tested in a β-galactosidase counterscreen assay (PUBCHEM AID 1966) to assess the possibility that these compounds might inhibit the reporting enzyme. […] The KOR:DOR:MOR selectivity of the compounds was determined using the analogous β-arrestin translocation assays for the DOR (PUBCHEM AID 2370 and 2357, for agonists and antagonist, respectively) and the MOR (PUBCHEM AID 2352 and 2420, for agonists and antagonists, respectively).

A further experiment has as its target MOR (Homo sapiens, UniProt P35372). Nature of the experiment: High content imaging based β-arrestin translocation assay, MOR agonist (MOR HCS). Particulars: n = 2, read-out: Average Potency MOR HCS.
Text: as §1, with “signal. The imaging based high-content β-arrestin translocation assay is based upon the redistribution of β-Arrestin linked to green fluorescent protein (GFP) to the cell surface and detection (Barak, et al. (1997) J. Biol. Chem. 272:27497-27500).” for “signal.”
as §2

[3] abbreviates: n = 3, read-out: Average Potency KOR DRx.
The mark [4] stands for this setting: n = 4, Table 11, read-out: Potency, EC50 (DRx).

T1 sequence (P41145 whole entry, the tested form may be a part): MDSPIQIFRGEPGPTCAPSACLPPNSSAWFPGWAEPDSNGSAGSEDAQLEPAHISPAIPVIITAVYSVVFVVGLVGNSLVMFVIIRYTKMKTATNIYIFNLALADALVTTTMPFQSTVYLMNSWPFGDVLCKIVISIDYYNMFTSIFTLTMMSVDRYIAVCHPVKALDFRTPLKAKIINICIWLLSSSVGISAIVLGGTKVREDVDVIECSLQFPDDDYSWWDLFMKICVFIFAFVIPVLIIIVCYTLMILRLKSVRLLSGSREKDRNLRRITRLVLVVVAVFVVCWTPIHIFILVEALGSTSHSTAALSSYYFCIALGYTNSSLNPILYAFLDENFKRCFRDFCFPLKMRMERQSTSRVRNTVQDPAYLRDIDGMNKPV
Sequence of MOR (P35372 whole entry): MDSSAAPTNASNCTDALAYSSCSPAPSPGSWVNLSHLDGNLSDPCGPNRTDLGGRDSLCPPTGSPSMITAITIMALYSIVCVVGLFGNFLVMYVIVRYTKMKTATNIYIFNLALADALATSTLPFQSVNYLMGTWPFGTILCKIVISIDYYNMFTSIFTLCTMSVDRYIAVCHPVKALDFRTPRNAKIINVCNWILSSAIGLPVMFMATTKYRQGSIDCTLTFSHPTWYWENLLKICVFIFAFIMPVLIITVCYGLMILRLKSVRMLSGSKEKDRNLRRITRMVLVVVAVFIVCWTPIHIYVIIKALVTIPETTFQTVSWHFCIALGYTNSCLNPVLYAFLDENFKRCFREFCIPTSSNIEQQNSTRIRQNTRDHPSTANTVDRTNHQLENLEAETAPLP

As to `CC(C)(C)c1ccc(CSc2nnc(-c3ccccn3)n2Cc2ccco2)cc1` [2{6}], on KOR [1], the maximal effect (Emax) (usually the greatest response seen or fitted, relative to the assay's reference) was approximately 100%. Moreover, the EC50 is 2.01 ± 0.07 µM at KOR [1] (setting [3]), 0.6 µM on KOR [2] and more than 32 µM at MOR.
The molecule `Clc1ccc(CSc2nnc(-c3ccccn3)n2Cc2cccs2)cc1Cl` [2{9}, 2-(5-((3,4-Dichlorobenzyl)thio)-4-(thiophen-2-ylmethyl)-4H-1,2,4-triazol-3-yl)pyridine] came in with an Emax on KOR [1] of approximately 135%. In addition, the EC50 at KOR [1] (setting [3]) was 0.73 ± 0.11 µM; at KOR [2], 0.43 µM; at MOR it was more than 32 µM.
`Clc1ccc(CSc2nnc(-c3ccccn3)n2Cc2ccco2)c(Cl)c1` [Compound 2{1}]: the figures for the EC50 at KOR [1] (setting [3]), at KOR [2] and on MOR were 1.86 ± 0.07 µM, 0.93 µM and more than 32 µM, respectively. The “Emax (%)” value on KOR [1] was approximately 100%.
Turning to `Clc1ccc(CSc2nnc(-c3ccccn3)n2Cc2cccs2)c(Cl)c1` [Compound 2{2}], the EC50 at KOR [1] (setting [3]) is 2.27 ± 0.46 µM; at KOR [2], 8.11 µM; on MOR, more than 32 µM. Moreover, at KOR [1], the “Emax (%)” value is on record as approximately 120%.
Take `Brc1ccc(CSc2nnc(-c3ccccn3)n2Cc2ccco2)cc1` [Compound 2{3}]: the EC50 was 1.92 ± 0.05 µM on KOR [1] (setting [3]), 1.36 µM at KOR [2] and more than 32 µM on MOR. Further, the “Emax (%)” value on KOR [1] is reported as approximately 100%.
Taken in the same sequence, the figures for `Brc1ccc(CSc2nnc(-c3ccccn3)n2Cc2cccs2)cc1` [Compound 2{4}] were 1.85 ± 0.11 µM, 1.1 µM, more than 32 µM and approximately 185%.
Turning to `Clc1cccc(CSc2nnc(-c3ccccn3)n2Cc2ccco2)c1` [Compound 2{7}], on KOR [1], the Emax is approximately 100%. Further, the EC50 at KOR [1] (setting [3]) was 6.76 ± 0.01 µM; at KOR [2] it was 3.63 µM; at MOR, more than 32 µM.
In the case of `FC(F)(F)c1cc(CSc2nnc(-c3ccccn3)n2Cc2ccco2)ccc1Cl` [Compound 2{10}], the EC50 was 0.5 µM on KOR [1] (setting [3]), 0.46 µM at KOR [2] and more than 32 µM at MOR. In addition, at KOR [1], the “Emax (%)” value is approximately 122%.
Regarding `Cc1ccc(CSc2nnc(-c3ccccn3)n2Cc2cccs2)cc1` [Compound 2{13}], the values for the EC50 at KOR [1] (setting [3]), at KOR [2] and on MOR were 3.59 ± 0.3 µM, 2.38 µM and more than 32 µM, respectively. For the same molecule, the “Emax (%)” value at KOR [1] is listed as approximately 170%.
Taken in the same sequence, the figures for `FC(F)(F)c1ccc(CSc2nnc(-c3ccccn3)n2Cc2ccco2)cc1` [Compound 2{14}] were 2.77 µM, 1.25 µM, more than 32 µM and approximately 166%.
On to `FC(F)(F)c1ccc(CSc2nnc(-c3ccccn3)n2Cc2cccs2)cc1` [Compound 2{15}], for which the EC50 at KOR [1] (setting [3]) was 1.23 µM; on KOR [2], 0.6 µM; at MOR, more than 32 µM. Besides, the “Emax (%)” value at KOR [1] is on record as approximately 149%.
As for `Fc1cc(F)cc(CSc2nnc(-c3ccccn3)n2Cc2ccco2)c1` [Compound 2{16}], the values for the EC50 on KOR [1] (setting [3]), on KOR [2] and on MOR were 7.89 µM, 21 µM and more than 32 µM, respectively. For the same molecule, the “Emax (%)” value at KOR [1] is approximately 104%.
As for `Cc1cc(C)c(CSc2nnc(-c3ccccn3)n2Cc2ccco2)c(C)c1` [Compound 2{18}], the “Emax (%)” value at KOR [1] is approximately 100%. Further, the EC50 at MOR is more than 32 µM.
Turning to `Cc1cc(C)c(CSc2nnc(-c3ccccn3)n2Cc2cccs2)c(C)c1` [Compound 2{19}], the EC50 on KOR [1] (setting [3]) is more than 20 µM; on KOR [2], 9.5 µM; at MOR, more than 32 µM.
As to `Fc1ccc(CSc2nnc(-c3ccccn3)n2Cc2cccs2)c(F)c1` [Compound 2{24}], the results for the EC50 on KOR [1] (setting [3]), on KOR [2] and at MOR were 6.74 ± 0.97 µM, 5.68 µM and more than 32 µM, respectively. The “Emax (%)” value on KOR [1] is approximately 155%.
Taken in the same sequence, the figures for `O=[N+]([O-])c1ccc(CSc2nnc(-c3ccccn3)n2Cc2ccco2)cc1` [Compound 2{25}] were 2.48 µM, 2.35 µM, more than 32 µM and approximately 120%.
On to `O=[N+]([O-])c1ccc(CSc2nnc(-c3ccccn3)n2Cc2cccs2)cc1` [Compound 2{26}], for which the figures for the EC50 on KOR [1] (setting [3]), at KOR [2] and at MOR were 1.24 µM, 0.96 µM and more than 32 µM, respectively. Besides, on KOR [1], the “Emax (%)” value is recorded as approximately 128%.
Take `N#Cc1ccc(CSc2nnc(-c3ccccn3)n2Cc2ccco2)cc1` [Compound 2{27}]: the results for the EC50 at KOR [1] (setting [3]), on KOR [2] and at MOR were 6.79 µM, 19 µM and more than 32 µM, respectively. Further, the “Emax (%)” value on KOR [1] was approximately 105%.
For the molecule `N#Cc1ccc(CSc2nnc(-c3ccccn3)n2Cc2cccs2)cc1` [Compound 2{28}], the EC50 was 4.64 µM at KOR [1] (setting [3]), 3.5 µM on KOR [2] and more than 32 µM at MOR. In addition, the “Emax (%)” value at KOR [1] is approximately 142%.
Regarding `COC(=O)c1ccc(CSc2nnc(-c3ccccn3)n2Cc2ccco2)cc1` [Compound 2{29}], the EC50 on KOR [1] (setting [3]) was 6.62 µM; at KOR [2] it was 18.5 µM; at MOR, more than 32 µM. The “Emax (%)” value on KOR [1] was approximately 125%.
For the molecule `COC(=O)c1ccc(CSc2nnc(-c3ccccn3)n2Cc2cccs2)cc1` [Compound 2{30}], the EC50 on KOR [1] (setting [3]) was 6.14 µM; on KOR [2] it was 6 µM; at MOR, more than 32 µM. Moreover, the “Emax (%)” value on KOR [1] was approximately 154%.
Consider `CC(=O)Oc1ccc(CSc2nnc(-c3ccccn3)n2Cc2ccco2)cc1` [Compound 2{31}], for which the EC50 was more than 20 µM at KOR [1] (setting [3]), more than 32 µM at KOR [2] and more than 32 µM on MOR.
In the case of `CC(=O)Oc1ccc(CSc2nnc(-c3ccccn3)n2Cc2cccs2)cc1` [Compound 2{32}], the EC50 at KOR [1] (setting [3]) is more than 20 µM; at KOR [2], more than 32 µM; on MOR, more than 32 µM.
For the molecule `CC(C)c1ccc(CSc2nnc(-c3ccccn3)n2Cc2ccco2)cc1` [Compound 2{33}], the EC50 at KOR [1] (setting [3]) was 5.97 µM; on KOR [2] it was 2.8 µM; on MOR, more than 32 µM. Also, the “Emax (%)” value at KOR [1] worked out at 165%.
Regarding `COc1ccc(Cn2c(SCc3ccccc3)nnc2-c2ccccn2)cc1` [Entry 1], on KOR [1] (setting [4]), the EC50 is more than 20 µM.
Consider `COc1ccc(Cn2c(SCc3ccc(Br)cc3)nnc2-c2ccccn2)cc1` [Entry 2], for which, on KOR [1] (setting [4]), the EC50 was more than 20 µM.
For the molecule `COc1ccc(Cn2c(SCc3ccc(Cl)c(Cl)c3)nnc2-c2ccccn2)cc1` [Entry 3], on KOR [1] (setting [4]), the EC50 amounted to 11.8 µM.
With `COc1ccc(Cn2c(SCc3ccc(Cl)c(C(F)(F)F)c3)nnc2-c2ccccn2)cc1` [Entry 4], the EC50 at KOR [1] (setting [4]) was more than 19.7 µM.
As to `c1ccc(CSc2nnc(-c3ccccn3)n2Cc2ccccc2)cc1` [Entry 5], at KOR [1] (setting [4]), the EC50 was more than 20 µM.
In the case of `Brc1ccc(CSc2nnc(-c3ccccn3)n2Cc2ccccc2)cc1` [Entry 6], the EC50 at KOR [1] (setting [4]) was found to be 4.06 µM.
As to `Clc1ccc(CSc2nnc(-c3ccccn3)n2Cc2ccccc2)cc1Cl` [Entry 7], the EC50 at KOR [1] (setting [4]) came out at 1.24 µM.
In the case of `FC(F)(F)c1cc(CSc2nnc(-c3ccccn3)n2Cc2ccccc2)ccc1Cl` [Entry 8], the EC50 on KOR [1] (setting [4]) came out at 2.22 µM.
`c1ccc(CSc2nnc(-c3ccccn3)n2Cc2cccnc2)cc1` [Entry 9]: the EC50 at KOR [1] (setting [4]) is more than 20 µM.
On the same count and under the same terms, to `Brc1ccc(CSc2nnc(-c3ccccn3)n2Cc2cccnc2)cc1` [Entry 10] belongs 8.51 µM.
The same measure, in the same setting: the same measure for `Clc1ccc(CSc2nnc(-c3ccccn3)n2Cc2cccnc2)cc1Cl` [Entry 11]: 0.76 µM.
Turning to `Clc1ccccc1Cn1c(SCc2ccccc2)nnc1-c1ccccn1` [Entry 13], the EC50 on KOR [1] (setting [4]) is more than 20 µM.
For the molecule `FC(F)(F)c1cc(CSc2nnc(-c3ccccn3)n2Cc2ccccc2Cl)ccc1Cl` [Entry 16], the EC50 at KOR [1] (setting [4]) was 4.3 µM.
Take `c1ccc(CSc2nnc(-c3ccncc3)n2Cc2ccco2)cc1` [Entry 17]: the EC50 at KOR [1] (setting [4]) was more than 20 µM.
In the case of `FC(F)(F)c1cc(CSc2nnc(-c3ccncc3)n2Cc2ccco2)ccc1Cl` [Entry 20], the EC50 on KOR [1] (setting [4]) is more than 20 µM.
On to `Brc1ccc(-c2nnc(SCc3ccccc3)n2Cc2ccco2)cc1` [Entry 21], for which the EC50 on KOR [1] (setting [4]) is more than 20 µM.
As for `Brc1ccc(CSc2nnc(-c3ccc(Br)cc3)n2Cc2ccco2)cc1` [Entry 22], the EC50 at KOR [1] (setting [4]) is 13.5 µM.
Still for that read-out and setting: to `Clc1ccc(CSc2nnc(-c3ccc(Br)cc3)n2Cc2ccco2)cc1Cl` [Entry 23] belongs 11 µM.
Regarding `FC(F)(F)c1cc(CSc2nnc(-c3ccc(Br)cc3)n2Cc2ccco2)ccc1Cl` [Entry 24], the EC50 on KOR [1] (setting [4]) was 13.3 µM.
